Values quoted from earlier work in patent publication US20240325308A1, “AMNIOTIC FLUID STABILIZED COMPOSITIONS AND METHODS FOR IN UTERO DELIVERY OF THERAPEUTIC AGENTS” (The Trustees of the University of Pennsylvania, priority 2021, published 2024).

System: fetal lung
Conditions: vitelline vein injection, gestational age E16 fetuses

Structure (SMILES): CCCCCCCCCCCCC(O)CN(CCOCCN(CC(O)CCCCCCCCCCCC)CC(O)CCCCCCCCCCCC)CCN1CCN(CCOCCN(CC(O)CCCCCCCCCCCC)CC(O)CCCCCCCCCCCC)CC1 (stereo not shown) [B-4, 1,1′-((2-(2-(4-(2-((2-(2-(bis(2-hydroxytetradecyl)amino)ethoxy)ethyl)(2-hydroxytetradecyl)amino)ethyl)piperazin-1-yl)ethoxy)ethyl)azanediyl)bis(tetradecan-2-ol)]
- Fetal lung delivery of LNPs formulated with the ionizable lipid: highest fetal lung delivery
